Data taken from patent US20010025105A1, “Certain substituted 1-aryl-3-piperazine-1'-yl propanones” (Molecular Geriatarics Corporation, priority 1997, published 2001).
Structures can show the parent of a compound that is named as a salt. Where two headings read alike, the source gives them in different places.

Experiments:
[1] = tested on: microtubule cytoskeleton of human CG neuroblastoma cells; assay: Antimicrotubule activity, tubulin immunofluorescence microscopy; assay type: cell-based; settings: 2 hr at 37° C., read-out: Concentration where microtubule destabilization occurs
Method: The compounds of the invention according to formula I are effective in destabilizing microtubules, thus are useful in treating certain neoplastic diseases. Indirect immunofluorescence microscopy using the monoclonal antibodies to tubulin is used herein to determine the activity of the compounds of this invention in promoting depolymerization of the microtubule cytoskeleton in cultured cells. The following assay was employed.
Cultured human CG neuroblastoma cells were seeded 1:3 from confluent cultures onto sterile 11×22 mm coverslips in 6 well tissue culture plates 16 hr prior to treatment. The following day, the tissue culture medium is removed and the cells are exposed to various concentrations of compounds of this invention in Krebs Ringer Hepes (KRH) buffer containing a final concentration of 0.5% DMSO as carrier. Incubations were performed at 37° C. in a humidified 5% CO2 atmosphere for 2 hr. After incubation, the cells were fixed in 3% TEM grade formaldehyde in PBS for 45 min at room temperature.
To visualize the effects of the compounds of the invention on the microtubule cytoskeleton, the cells were processed for tubulin immunofluorescence. Briefly, the cells were permeabilized in 0.5% Triton-X 100 in PBS for 5 min. The cells were washed 2× with PBS and aldehydes reduced using 0.5 mg/ml NaBH4 in PBS for 5 min. Subsequently, the cells were blocked for 10 min in 1.5% BSA and 1.5% nonfat dry milk in PBS (blocking solution, BS) for 10 min. The cells were then incubated for 30 min at 37° C. with the monoclonal antibody Tu27B which recognizes b-tubulin (dilution 1:20 in BS). Subsequently, the cells were washed 2× in PBS and once in BS. The cells were then incubated for 30 min at 37° C. with sheep antimouse IgG conjugated to FITC. After incubation, the cells were washed 2× in PBS and once in BS and incubated for 30 min at 37° C. with rabbit antisheep IgG conjugated to FITC. The cells were rinsed in PBS, counterstained with Hoechst 33285 in PBS (1 μg/ml), and rinsed in PBS. The coverslips were mounted in 9:1 glycerol:PBS containing 1 mg/ml p-phenylenediamine and sealed with nail polish.
The cells were viewed using a Jenalumar epifluorescence microscope equipped with the proper filters for Fluorescein Isothiocyanate (FITC) excitation and emission. Lack of effect of a compound is evidenced by the presence of an intact microtubule network in interphase cells, or a mitotic spindle in dividing cells. Antineoplastic compounds of the invention at effective doses result in the disappearance of microtubules in both interphase and mitotic cells.

[2] = tested on: TG3 immunoreactivity in OKA treated MSN1a cells; assay: MSN1a cell culture model, ELISA with TG3 antibody, okadaic acid treated cells; assay type: cell-based, human; settings: 1 μM OKA, 2 hrs at 37° C., read-out: IC50 for inhibition of TG3 immunoreactivity in OKA treated MSN1a cells
Method: This assay can thus be used to determine whether a drug is capable of preventing or intervening in AD by attenuating the production of abnormally phosphorylated paired helical filament epitopes associated with AD. To determine whether a drug is capable of preventing or intervening in AD activity, the MSN1a cells containing tau and associated proteins are treated with OKA capable of greatly increasing immunoreactivity of the MSN1a cells with AD specific monoclonal antibodies. Then, either prior to or concomitantly with OKA treatment, a compound of the present invention is added to the culture. If the compound prevents the induction of the AD epitopes in the MSN1a cells treated with OKA, then it is said to have anti-AD activity. If the AD-specific antibodies are highly reactive with the neuroblastoma cells following OKA treatment in the presence of compound, then the compound is said to be ineffectual against AD.
The MSN1a human neuroblastoma line was subcloned from a population of MSN cells obtained from the laboratory of Dr. Peter Davies (Albert Einstein College of Medicine, New York, N.Y.). Cells were grown and maintained in flasks in RPMI 1640 medium, supplemented with 15% fetal calf serum, 100 U/ml penicillin, 100 U/ml Streptomycin, 0.5 ug/ml fungizone under 7.5% CO2 at 37° C.
Stock solutions of drugs were prepared by dissolving the anhydrous powders to final concentrations of either 10 or 20 mM in 50% aqueous or 100% dimethyl sulfoxide (DMSO), respectively. Working solutions of drugs were prepared by dilution of the stock solutions with Kreb's Ringer in Hepes buffer (KRH) (128 mM NaCl, 5 mM KCl, 2.5 mM CaCl2 1.2 mM MgSO4, 1 mM Na2HPO4, 10 mM dextrose, 20 mM Hepes, pH 7.4). OKA is maintained as a 1 mM stock solution in DMSO prior to dilution to 4 μM in KRH.
MSN cells grown in 225 cm^2 flasks are removed from the incubator, their medium decanted and replaced with 50 ml pre-warmed KRH. The cells are harvested by scraping prior to sedimentation at 1000 rpm for 5 min. The supernatants are discarded and the cell pellets are resuspended, the cells counted and diluted to a density of 2×10^4 cells/[…]. The cells are then plated in a 96 well plate at 50 μl/well and 25 μl of 4 μM OKA and 25 μl of drug are then added to the appropriate wells; the entire 96 well plate is then incubated for 2 hrs at 37° C. Depending on the dilution of drug added, this yields individual wells containing 1 μM OKA, 0-64 μM drug and 2×10^4 cells in 0.26% DMSO in KRH. The incubation is terminated by the addition of 20 μl of 6X extraction buffer and immediate freezing at −80° C. for at least one hr. The 6X extraction buffer contains: 25 mM Tris-HCl, pH 7.6, 150 mM NaCl, 5 mM EDTA, 24 mM β-glycerol phosphate, 10 μg/ml APMSF (4-amidinophenylmethane-sulfonyl flouride), and 2.5 μg/ml each of leupeptin, aprotinin, and pepstatin. The plates are thawed in a 37° C. water bath and 20 μl of cell lysate is added to a replica well in an ELISA plate that already contains 80 μl of coating buffer (15 mM Na2CO3 and 35 mM NaHCO3, pH 9.6). The plates are allowed to coat overnight at 4° C. The plates are washed four times with deionized water and then blocked for 30 min at 37° C. with 200 μl/well pre-warmed 1% bovine serum albumin in 10 mM Tris-HCl, pH 7.4, 150 mM NaCl, 3 mM NaN3 (BSA-TBS). After the blocking solution is removed, 100 μl/well of an appropriate dilution of pre-warmed primary antibody (eg., TG3 or PHF-1) in BSA-TBS is added and incubated at 37° C. for 30 min. Incubation is terninated by washing four times in deionized water at which time 100 μl of an appropriate dilution of pre-warmed secondary antibody (conjugated to alkaline phosphatase) in BSA-TBS is added to each well in the ELISA plate. Incubation is performed for 30 min at 37° C. followed by washing 4 times with deionized water. […] of prewarmed chromogenic substrate (1 mg/mnl p-nitrophenyl phosphate in 10% diethanolamine, 3 mM NaN3, 0.5 mM MgCl2, pH 9.8) is added and the plate incubated for 30 min at 37° C. […]

[3] = tested on: Candida albicans SRI 523; assay: Agar disc diffusion assay; assay type: cell-based; settings: 240 ug/disc, about 24 hr at 37° C.; for zone of inhibition at 240 µg/disc: Candida albicans, SRI523, read-out: Diameter of the zone of inhibition, C. albicans
Method: (§1) The activity of the compounds is determined using the following assay. The compound is dissolved in DMSO at a concentration of 6 mg/ml and then diluted with water to a final concentration of 3 mg/ml in 50% DMSO (% DMSO was shown not to be inhibitory to the test organisms). An aliquot (0.08 ml) of each drug solution was transferred to filter paper discs (12.7 mm diameter, Scmeicherand Schuell) for use in the agar diffusion assay. The concentration of each drug on the filter paper disc was 240 ug/disc. The test organisms included the following: Gram-positive aerobes (Staphylococcus aureus SRI 1323, Streptococcus pneumoniae SRI 1167); Gram-negative aerobe (Proteus vulgaris SRI 180); and the yeast Candida albicans SRI 523. An agar disc diffusion assay was used to evaluate the antimicrobial activity of the test compounds. Briefly, cultures were prepared from 16-20 hr agar slant cultures by inoculating in physiological saline to a turbidity equivalent to a #0.5 McFarland turbidity standard for the bacteria and a #3 McFarland standard for C. albicans. The surface of Mueller-Hinton agar (15×100 mm plates, mm) were evenly inoculated with each standardized culture using a cotton swab. Filter paper discs containing the drug concentration listed above were then placed on the inoculated agar plates along with a disc containing the solvent used to dissolve each drug. The plates were incubated at 37° C. for about 24 hr and the diameters of the zones of inhibition measured with a vernier caliper. Positive control drugs consisted of streptomycin for use with the bacterial strains and 5-fluorocytosine for use with C. albicans. The positive control drugs were assayed as described above for the compounds of the present invention using the same concentration.

[4] = tested on: Streptococcus pneumoniae SRI 1167; assay: Agar disc diffusion assay; assay type: cell-based; settings: 240 ug/disc, about 24 hr at 37° C., + = zone too large to measure; for zone of inhibition at 240 µg/disc: Streptococcus pneumoniae, SRI1167, read-out: Diameter of the zone of inhibition, S. pneumoniae
Method: as §1

[5] = tested on: Proteus vulgaris SRI 180; assay: Agar disc diffusion assay; assay type: cell-based; settings: 240 ug/disc, about 24 hr at 37° C., 0 = no measurable zone; for zone of inhibition at 240 µg/disc: Proteus vulgaris, SRI180, read-out: Diameter of the zone of inhibition, P. vulgaris
Method: as §1

[6] = tested on: Staphylococcus aureus SRI 1323; assay: Agar disc diffusion assay; assay type: cell-based; settings: 240 ug/disc, about 24 hr at 37° C.; for zone of inhibition at 240 µg/disc: Staphylococcus aureus, SRI1323, read-out: Diameter of the zone of inhibition, S. aureus
Method: as §1

## O=C(CCN1CCN(Cc2ccccc2)CC1)c1cc2ccccc2o1 [Example 10, 1-(Benzofur-2″-yl)-3-(4′-benzyl-1′-piperazinyl)-1-propanone dihydrochloride]
[1]; Neuroblastoma cell
  minimal effective concentration: 20 µM
[2]; Homo sapiens
  IC50: 6 µM

## Nc1nc(=O)[nH]cc1F [5-fluorocytosine, reference compound]
[3]
  zone of inhibition at 240 µg/disc: 33.5 mm

## Cl.Cl.O=C(CCN1CCN(C(c2ccccc2)c2ccc(Cl)cc2)CC1)c1ccc(Br)s1 (centres unmarked) [Example 78, 1(5″-Bromo-2″-thienyl)-3-[4′-(1′″-p-chlorophenyl-1′″-phenylmethyl)-1′-piperazinyl]-1-propanone dihydrochloride]
[4]
  Diameter of the zone of inhibition, S. pneumoniae: 19.7 mm
[3]
  Diameter of the zone of inhibition, C. albicans: 15.2 mm
[5]
  Diameter of the zone of inhibition, P. vulgaris: 14.5 mm
[6]
  Diameter of the zone of inhibition, S. aureus: 16.2 mm

## [H]/N=C(/N)N[C@H]1[C@H](O)[C@@H](O)[C@H](O[C@@H]2O[C@@H](C)[C@](O)(C=O)[C@H]2O[C@@H]2O[C@@H](CO)[C@H](O)[C@@H](O)[C@@H]2NC)[C@@H](N/C(N)=N\[H])[C@@H]1O [streptomycin, reference compound]
[4]
  zone of inhibition at 240 µg/disc: 39.8 mm
[5]
  zone of inhibition at 240 µg/disc: 37.6 mm
[6]
  zone of inhibition at 240 µg/disc: 28.4 mm

## Cl.Cl.O=C(CCN1CCN(Cc2ccccc2)CC1)c1csc([N+](=O)[O-])c1 [Example 80, 1-(5″-Nitro-3″-thienyl)-3-(4′-benzyl-1′-piperazinyl)-1-propanone dihydrochloride]
[3]
  Diameter of the zone of inhibition, C. albicans: 14.5 mm
[5]
  Diameter of the zone of inhibition, P. vulgaris: 13.8 mm
[6]
  Diameter of the zone of inhibition, S. aureus: 17.2 mm
[2]
  IC50: 5.7 µM

## Cl.Cl.O=C(CCN1CCN(Cc2ccccc2)CC1)c1cc([N+](=O)[O-])c(Cl)s1 [Example 95, 1-(5″-Chloro-4″-nitro-2″-thienyl)-3-(4′-benzyl-1′-piperazinyl)-1-propanone dihydrochloride]
[1]
  minimal effective concentration: 20 µM
[2]
  IC50: 2.8 µM

## O=C(CCN1CCN(C(=O)c2sc3ccccc3c2Cl)CC1)c1ccc(Br)s1 [Example 86, 1-(5″-Bromo-2″-thienyl)-3-[4′-(3′″-chlorobenzo[b]-2′″-thienoyl)-1′-piperazinyl]-1-propanone dihydrochloride]
[4]
  zone of inhibition at 240 µg/disc: 19.3 mm
[3]
  zone of inhibition at 240 µg/disc: 17.3 mm
[5]
  zone of inhibition at 240 µg/disc: 13.9 mm
[6]
  zone of inhibition at 240 µg/disc: 16.2 mm

## Cl.Cl.O=C(CCN1CCN(Cc2ccccc2)CC1)c1ccc(F)c(Br)c1 [Example 25, 1-(p-Fluoro-m-bromophenyl)-3-(4′-benzyl-1′-piperazinyl)-1-propanone dihydrochloride]
[4]
  Diameter of the zone of inhibition, S. pneumoniae: 36.3 mm
[3]
  Diameter of the zone of inhibition, C. albicans: 26.0 mm
[5]
  Diameter of the zone of inhibition, P. vulgaris: 16.0 mm
[6]
  Diameter of the zone of inhibition, S. aureus: 27.5 mm

## Cl.Cl.N#Cc1ccc(C(=O)CCN2CCN(Cc3ccccc3)CC2)s1 [Example 85, 1-(5″-Cyano-2″-thienyl)-3-(4′-benzyl-1′-piperazinyl)-1-propanone dihydrochloride]
[1]
  minimal effective concentration: 20 µM

## Cl.O=C(CCN1CCN(C(=O)c2ccccc2C(F)(F)F)CC1)c1ccccc1F [Example 43]
[4]
  Diameter of the zone of inhibition, S. pneumoniae: 25.3 mm
[3]
  Diameter of the zone of inhibition, C. albicans: 22.5 mm
[5]
  Diameter of the zone of inhibition, P. vulgaris: 15.9 mm
[6]
  Diameter of the zone of inhibition, S. aureus: 17.7 mm
